Laboratory results as given in US8575203B2, “Chemical compounds” (Boehringer Ingelheim International GmbH, priority 2010, dated 2013).

Target: Recombinant human PDK1 enzyme (aa 52-556) (Homo sapiens (Human), UniProt O15530)
Assay: PDK1 kinase assay
Assay type: biochemical
Settings: in vitro kinase assay, His6-PDK1 (aa 52-556), PDKtide, P33-ATP
Procedure: The activity of the compounds according to the invention on the kinase PDK1 which inhibits the signal transduction pathway is determined in an in vitro kinase assay with recombinantly prepared protein:
Recombinant human PDK1 enzyme (aa 52-556) linked at its N-terminal end to His6 is isolated from baculovirus-infected insect cells. Purified enzyme may be obtained for example from the University of Dundee, Scotland. The following components are combined in a well of a 96-well round-based dish (Greiner bio-one, No. 650101): • 15 μL of compound to be tested in varying concentrations (e.g. starting at 10 μM, and diluted in steps of 1:5) in APT buffer (50 mM Tris/Cl pH 7.5; 0.05% β-mercaptoethanol; 10 mM Mg-acetate; 0.0166% Tween 20; 3.33% DMSO) • 15 μL His6-PDK1 (aa 52-556) 3.33 ng/well) and PDKtide ([…]), synthesised by Pepceuticals Limited, Nottingham, United Kingdom; 25 μM final concentration); His6-PDK1 and PDKtide are together diluted accordingly in assay buffer (50 mM tris pH 7.5, 0.05% β-mercaptoethanol, 10 mM Mg-acetate); PDKtide is present in this mixture as an 83.3 μM solution. These 30 μl are routinely incubated for 30 min at RT. • 20 μL ATP solution (25 μM ATP with 1.0 μCi/well gamma-P33-ATP). The final concentration of Tween 20 is 0.005%.
The reaction is started by adding the ATP solution and the mixture is incubated for 90 min at RT. At the start of the reaction the dishes are shaken gently. The reaction is stopped by the addition of 50 μL/well of 500 mM phosphoric acid (H3PO4) and incubated for about 20 min at RT. The precipitate is transferred by harvesting onto filter plates (96-well microtitre filter plate: UniFilter GF/C; Perkin Elmer; No. 6005174), then washed 6 times with 50 mM H3PO4 and dried at 60° C. Then the plate is stuck down with sealing tape, 25 μL/well of scintillation solution (Microscint 0; Perkin Elmer; No. 6013611) are added and the amount of P33 precipitated is measured using the Wallac Betacounter. The measured data are evaluated using Graphpad Prism software.

Sequence of Recombinant human PDK1 enzyme (aa 52-556) (O15530 52-556): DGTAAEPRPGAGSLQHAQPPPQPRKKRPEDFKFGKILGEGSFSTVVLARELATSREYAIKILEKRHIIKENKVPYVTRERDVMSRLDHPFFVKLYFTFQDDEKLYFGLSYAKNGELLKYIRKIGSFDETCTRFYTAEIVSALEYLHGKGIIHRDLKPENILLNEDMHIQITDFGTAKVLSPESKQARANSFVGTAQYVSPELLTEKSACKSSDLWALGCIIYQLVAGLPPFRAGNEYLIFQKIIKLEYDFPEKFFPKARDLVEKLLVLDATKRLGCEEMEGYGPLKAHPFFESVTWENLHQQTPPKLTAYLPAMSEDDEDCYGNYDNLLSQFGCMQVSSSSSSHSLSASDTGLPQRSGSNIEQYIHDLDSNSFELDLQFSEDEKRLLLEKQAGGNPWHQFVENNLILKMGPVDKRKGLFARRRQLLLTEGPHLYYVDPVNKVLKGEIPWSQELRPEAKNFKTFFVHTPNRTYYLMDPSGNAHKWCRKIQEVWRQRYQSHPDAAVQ

Row | Structure (SMILES) | IC50 [nM]
1 | COc1ncnc2ccc(C#CCNC(=O)c3cncn(Cc4ccc(F)c(F)c4)c3=O)cc12 [I-2] | 37
2 | CNc1ncnc2ccc(C#CCNC(=O)c3cccn(Cc4ccc(F)c(F)c4)c3=O)c(C)c12 [I-3] | 8
3 | CNc1ncnc2cc(Cl)c(C#CCNC(=O)c3cncn(Cc4ccc(F)c(F)c4)c3=O)cc12 [I-5] | 229
4 | CNc1ncnc2cc(F)c(C#CCNC(=O)c3c(C)n(C)n(Cc4ccc(F)c(F)c4)c3=O)cc12 [I-6] | 68
5 | CCOc1ncnc2ccc(C#CCNC(=O)c3cncn(Cc4ccc(F)c(F)c4)c3=O)cc12 [I-7] | 94
6 | CN(C)CCCOc1ncnc2ccc(C#CCNC(=O)c3cncn(Cc4ccc(F)c(F)c4)c3=O)cc12 [I-8] | 103
7 | CN(C)CCN(C)c1cnc2ccc(C#CCNC(=O)c3cncn(Cc4ccc(F)c(F)c4)c3=O)cc2n1 [I-11] | 88
8 | CN(C)CCCN(C)c1cnc2ccc(C#CCNC(=O)c3cncn(Cc4ccc(F)c(F)c4)c3=O)cc2n1 [I-13] | 34
9 | CN(C)CCCOc1cnc2ccc(C#CCNC(=O)c3cncn(Cc4ccc(F)c(F)c4)c3=O)cc2n1 [I-17] | 95
10 | CN(C)CCSc1cnc2ccc(C#CCNC(=O)c3cncn(Cc4ccc(F)c(F)c4)c3=O)cc2n1 [I-18] | 17
11 | CN1CCN(c2cnc3ccc(C#CCNC(=O)c4cncn(Cc5ccc(F)c(F)c5)c4=O)cc3n2)CC1 [I-24] | 117
12 | CN(C)CC(C)(C)CNc1cnc2ccc(C#CCNC(=O)c3cncn(Cc4ccc(F)c(F)c4)c3=O)cc2n1 [I-25] | 42
13 | C[C@H](c1ccc(F)c(F)c1)n1cccc(C(=O)NCC#Cc2ccc3ncc(NC4CCN(C)CC4)nc3c2)c1=O [I-30] | 2
14 | CN1CCC(Nc2cnc3ccc(C#CCNC(=O)c4cccn(Cc5ccc(F)c(F)c5)c4=O)cc3n2)CC1 [I-31] | 5
15 | CN1CCC(Nc2cnc3ccc(C#CCNC(=O)c4cccn([C@H](CO)c5ccccc5)c4=O)cc3n2)CC1 [I-32] | 8
16 | CN1CCC(Nc2cnc3ccc(C#CCNC(=O)c4cccn([C@@H](CO)c5ccc(F)c(F)c5)c4=O)cc3n2)CC1 [I-41] | 3
17 | O=C(NCC#Cc1ccc2ncc(N[C@H]3CC[C@H](N4CCN(CC5CC5)CC4)CC3)nc2c1)c1cncn(Cc2ccc(F)c(F)c2)c1=O [I-42] | 3

Row | Structure (SMILES) | IC50 [nM]
18 | COCCN1CCC(Nc2cnc3ccc(C#CCNC(=O)c4cccn([C@@H](CO)c5ccc(F)c(F)c5)c4=O)cc3n2)CC1 [I-48] | 3
19 | COCCN1CCC(Nc2cnc3ccc(C#CCNC(=O)c4cccn(Cc5ccc(F)c(F)c5)c4=O)cc3n2)CC1 [I-49] | 9
20 | CCN1CCC(Nc2cnc3ccc(C#CCNC(=O)c4cccn([C@@H](CO)c5ccc(F)c(F)c5)c4=O)cc3n2)CC1 [I-50] | 1
21 | COCCN1CCC(Nc2cnc3ccc(C#CCNC(=O)c4cccn([C@@H](C)c5ccc(F)c(F)c5)c4=O)cc3n2)CC1 [I-52] | 4
22 | COCCN1CCC(Nc2cnc3ccc(C#CCNC(=O)c4ccnn(Cc5ccc(F)c(F)c5)c4=O)cc3n2)CC1 [I-53] | 8
23 | O=C(NCC#Cc1ccc2ncc(NC3CCN(C4COC4)CC3)nc2c1)c1ccnn(Cc2ccc(F)c(F)c2)c1=O [I-54] | 8
24 | COCCN1CCC(Nc2cnc3ccc(C#CCNC(=O)c4cccn([C@H](CO)c5cccc(F)c5)c4=O)cc3n2)CC1 [I-55] | 4
25 | O=C(NCC#Cc1ccc2ncc(NC3CCN(C4COC4)CC3)nc2c1)c1cccn(Cc2ccc(F)c(F)c2)c1=O [I-57] | 9
26 | C[C@@H](c1ccc(F)c(F)c1)n1cccc(C(=O)NCC#Cc2ccc3ncc(NC4CCN(C5COC5)CC4)nc3c2)c1=O [I-58] | 8
27 | O=C(NCC#Cc1ccc2ncc(N[C@H]3CC[C@H](N4CCOCC4)CC3)nc2c1)c1cccn([C@H](CO)c2ccccc2)c1=O [I-59] | 5
28 | O=C(NCC#Cc1ccc2ncc(N[C@H]3CC[C@H](N4CCOCC4)CC3)nc2c1)c1ccnn(Cc2ccc(F)c(F)c2)c1=O [I-60] | 7
29 | O=C(NCC#Cc1ccc2ncc(N[C@H]3CC[C@H](N4CCN(CC5CC5)CC4)CC3)nc2c1)c1cccn([C@H](CO)c2cccc(F)c2)c1=O [I-61] | 2
30 | O=C(NCC#Cc1ccc2ncc(N[C@H]3CC[C@H](N4CCN(CC5CC5)CC4)CC3)nc2c1)c1ccnn(Cc2ccc(F)c(F)c2)c1=O [I-62] | 2
31 | O=C(NCC#Cc1ccc2ncc(NC3CCN(C4COC4)CC3)nc2c1)c1cccn([C@H](CO)c2cccc(F)c2)c1=O [I-63] | 4
32 | O=C(NCC#Cc1ccc2ncc(N[C@H]3CC[C@H](N4CCOCC4)CC3)nc2c1)c1cccn([C@H](CO)c2cccc(F)c2)c1=O [I-64] | 5
33 | CC(C)=Cc1cnc2ccc(C#CCNC(=O)c3cncn(Cc4ccc(F)c(F)c4)c3=O)cc2n1 [I-68] | 233

Next, values leading:

Row | IC50 [nM] | Structure (SMILES)
34 | 3 | O=C(NCC#Cc1ccc2ncc(NC3CCN(CCO)CC3)nc2c1)c1cncn(Cc2ccc(F)c(F)c2)c1=O [I-9]
35 | 11 | CN(C)CCCNc1cnc2ccc(C#CCNC(=O)c3cncn(Cc4ccc(F)c(F)c4)c3=O)cc2n1 [I-10]
36 | 35 | CN(C)CCNc1cnc2ccc(C#CCNC(=O)c3cncn(Cc4ccc(F)c(F)c4)c3=O)cc2n1 [I-12]
37 | 27 | CNc1cnc2ccc(C#CCNC(=O)c3cncn(Cc4ccc(F)c(F)c4)c3=O)cc2n1 [I-14]
38 | 68 | CN(C)c1cnc2ccc(C#CCNC(=O)c3cncn(Cc4ccc(F)c(F)c4)c3=O)cc2n1 [I-15]
39 | 33 | CN1CCC(Nc2cnc3ccc(C#CCNC(=O)c4cncn(Cc5ccc(F)c(F)c5)c4=O)cc3n2)C1 (stereo not drawn) [I-16]
40 | 4 | CN1CCC(Nc2cnc3ccc(C#CCNC(=O)c4cncn(Cc5ccc(F)c(F)c5)c4=O)cc3n2)CC1 [I-19]
41 | 149 | CN1CCCC(Nc2cnc3ccc(C#CCNC(=O)c4cncn(Cc5ccc(F)c(F)c5)c4=O)cc3n2)C1 (stereo not drawn) [I-21]
42 | 6 | CCN1CCC(Nc2cnc3ccc(C#CCNC(=O)c4cncn(Cc5ccc(F)c(F)c5)c4=O)cc3n2)CC1 [I-22]
43 | 8 | O=C(NCC#Cc1ccc2ncc(NC3CCN(C4CC4)CC3)nc2c1)c1cncn(Cc2ccc(F)c(F)c2)c1=O [I-23]
44 | 588 | O=C(NCC#Cc1ccc2ncc(NC3CCCCC3)nc2c1)c1cncn(Cc2ccc(F)c(F)c2)c1=O [I-26]
45 | 3 | O=C(NCC#Cc1ccc2ncc(NC3CCNCC3)nc2c1)c1cncn(Cc2ccc(F)c(F)c2)c1=O [I-27]
46 | 21 | CN1CCC(N(C)c2cnc3ccc(C#CCNC(=O)c4cncn(Cc5ccc(F)c(F)c5)c4=O)cc3n2)CC1 [I-28]
47 | 41 | O=C(NCC#Cc1ccc2ncc(NC3CC(N4CCCC4)C3)nc2c1)c1cncn(Cc2ccc(F)c(F)c2)c1=O (stereo not drawn) [I-29]
48 | 40 | N[C@H]1CC[C@@H](Nc2cnc3ccc(C#CCNC(=O)c4cncn(Cc5ccc(F)c(F)c5)c4=O)cc3n2)CC1 [I-33]
49 | 3 | N[C@H]1CC[C@H](Nc2cnc3ccc(C#CCNC(=O)c4cncn(Cc5ccc(F)c(F)c5)c4=O)cc3n2)CC1 [I-34]
50 | 21 | CC(C)Nc1cnc2ccc(C#CCNC(=O)c3cncn(Cc4ccc(F)c(F)c4)c3=O)cc2n1 [I-35]
51 | 87 | CN1CCN(Nc2cnc3ccc(C#CCNC(=O)c4cncn(Cc5ccc(F)c(F)c5)c4=O)cc3n2)CC1 [I-36]
52 | 5 | COCCN1CCC(Nc2cnc3ccc(C#CCNC(=O)c4cncn(Cc5ccc(F)c(F)c5)c4=O)cc3n2)CC1 [I-37]
53 | 56 | CN1CCC(Oc2cnc3ccc(C#CCNC(=O)c4cncn(Cc5ccc(F)c(F)c5)c4=O)cc3n2)CC1 [I-38]
54 | 21 | O=C(NCC#Cc1ccc2ncc(N[C@H]3CC[C@H](O)CC3)nc2c1)c1cncn(Cc2ccc(F)c(F)c2)c1=O [I-39]
55 | 2 | O=C(NCC#Cc1ccc2ncc(N[C@H]3CC[C@H](N4CCOCC4)CC3)nc2c1)c1cncn(Cc2ccc(F)c(F)c2)c1=O [I-40]
56 | 5 | CN(C)[C@H]1CC[C@H](Nc2cnc3ccc(C#CCNC(=O)c4cncn(Cc5ccc(F)c(F)c5)c4=O)cc3n2)CC1 [I-43]
57 | 11 | NC1CCC(Nc2cnc3ccc(C#CCNC(=O)c4cncn(Cc5ccc(F)c(F)c5)c4=O)cc3n2)C1 (stereo not drawn) [I-44]
58 | 8 | CCN1CC[C@@H](Nc2cnc3ccc(C#CCNC(=O)c4cncn(Cc5ccc(F)c(F)c5)c4=O)cc3n2)[C@@H](F)C1 [I-45]
59 | 7 | CCN1CCC(Nc2cnc3ccc(C#CCNC(=O)c4cccn(Cc5ccc(F)c(F)c5)c4=O)cc3n2)CC1 [I-46]
60 | 4 | CCN1CC[C@H](Nc2cnc3ccc(C#CCNC(=O)c4cncn(Cc5ccc(F)c(F)c5)c4=O)cc3n2)[C@H](F)C1 [I-47]
61 | 3 | O=C(NCC#Cc1ccc2ncc(NC3CCN(C4COC4)CC3)nc2c1)c1cncn(Cc2ccc(F)c(F)c2)c1=O [I-56]
62 | 654 | O=C(NCC#Cc1ccc2ncc(CC3CCNCC3)nc2c1)c1cncn(Cc2ccc(F)c(F)c2)c1=O [I-66]
63 | 940 | CN1CCC(Cc2cnc3ccc(C#CCNC(=O)c4cncn(Cc5ccc(F)c(F)c5)c4=O)cc3n2)CC1 [I-67]
